Assay results from PubChem BioAssay AID1996.
Values after ≈ are worked out from the molar mass of the structure shown.

Conditions: buffer; pH 7.4; 200.0 µM

SMILES | solubility kinetic [µg/mL]
O=C(Nc1nc2ccc(F)cc2s1)c1cccs1 | 1.1 (≈ 3.95 µM)
CNC(=S)N1CCn2cccc2C1c1ccc(F)cc1 (configuration not stated) | 40.8 (≈ 141 µM)
COc1ccc(NC(=O)c2cc3cc(C)ccc3n2C)c(OC)c1 | 2.7 (≈ 8.32 µM)
Cc1ccc(S(C)(=O)=NS(=O)(=O)c2cccc3nsnc23)cc1 (configuration not stated) | > 55.1
Nc1c(NCc2ccccc2)c(=O)c1=O | 5.9 (≈ 29.2 µM)
COC(CSc1ncnc2c1oc1nc3c(cc12)COC(C)(C)C3)OC | 54.6 (≈ 145 µM)
CCOc1ccccc1CN1C(=O)C2(OCCO2)c2ccccc21 | 5.2 (≈ 16 µM)
COc1ccccc1CCNC1CCCCCC1 | > 37.1
CCCC1C(=O)N(Cc2ccccc2)C(=O)CC1C (configuration not stated) | 31.1 (≈ 120 µM)
CCn1cc(S(=O)(=O)N2CCCC2)cn1 | > 34.4
CCc1nc(NC(=O)c2sc(C)nc2C)sc1C(=O)OC | > 48.8
O=C(Cn1cc([N+](=O)[O-])cn1)NCCc1nc2ccccc2[nH]1 | > 47.1
Cc1cccc(C(=O)OCC(=O)NCc2ccco2)c1 | > 41
CC(C)(C)C(=O)N1c2ccccc2CCc2ccccc21 | 28.7 (≈ 103 µM)
CCNC(=O)c1ccccc1-c1nc(-c2ccccc2OC)no1 | 42.3 (≈ 131 µM)
CNC(=O)COc1ccc(S(=O)(=O)N2CCCC2)cc1 | 40.9 (≈ 137 µM)
O=C1COc2ccc(C(=O)NC3CC3)cc2N1 | > 34.8
CC(=O)Nc1ccc(SCc2c(C)noc2C)cc1 | > 41.5
Cc1c(C)n(CCc2c[nH]c3ccccc23)ccc1=O | 38.5 (≈ 145 µM)
COc1ccc(NC(=O)Cc2cccs2)cc1S(=O)(=O)N1CCCCC1 | 44.4 (≈ 113 µM)
CCS(=O)(=O)N1CCC(N2CCN(c3ccccc3)CC2)CC1 | 49.6 (≈ 147 µM)
CCN(C(=O)COC(=O)CCC(=O)c1cccs1)C1CCCCC1 | > 52.7
COC(=O)CN1C(=O)Nc2ccc(Cl)cc2C1c1ccccc1 (configuration not stated) | 2.1 (≈ 6.35 µM)
CCOC(=O)Cn1nc2sc3ccccc3n2c(=O)c1=O | > 45.8
Cc1ccc(SCc2ccc(C(=O)N3CCCC3)cc2)cc1 | 31 (≈ 99.5 µM)

SMILES | solubility kinetic [µg/mL]
CC(C)[C@H](NC(=O)NCc1ccc(F)cc1)C(=O)O | > 40.2
Cc1ccc2c(c1)C(=O)C(=O)N2CCCOc1ccccc1C | 4.9 (≈ 15.8 µM)
COCc1cc(C)[nH]c(=O)c1C(=O)NC12CC3CC(CC(C3)C1)C2 | 9.6 (≈ 29.1 µM)
COc1ccc(OCCC(=O)OCC(=O)Nc2cccc(S(=O)(=O)N3CCCCC3)c2)cc1 | 30.5 (≈ 64 µM)
Cc1ccc(C2N=C(N)Nc3nc4ccccc4n32)cc1 (configuration not stated) | 35 (≈ 126 µM)
O=[N+]([O-])c1ccc(NC(=S)N2CCc3ccccc32)cc1 | 3.9 (≈ 13 µM)
Cc1ccc(C(=O)NCC(=O)OCC(=O)Nc2cc(S(=O)(=O)N3CCOCC3)ccc2Cl)s1 | > 77.4
O=C(NC12CC3CC(CC(C3)C1)C2)c1ccc([N+](=O)[O-])o1 | 34.9 (≈ 120 µM)
O=[N+]([O-])c1ccccc1S(=O)(=O)N(CC1CO1)c1ccccc1 (configuration not stated) | > 50.2
Cc1cc(C)c2sc(N(CCN(C)C)C(=O)c3ccc4ccccc4c3)nc2c1.Cl | 6.7
Nc1ncccc1C(=O)OCC(=O)NC1CCCCCC1 | 38 (≈ 130 µM)
Cc1ccc(NC2=C(Cl)C(=O)OC2OC(C)C)cc1 (configuration not stated) | 34.8 (≈ 124 µM)
S=C(NCc1ccc(Cl)cc1)Nc1ccncc1 | > 41.7
Cc1ccc(OCCCn2ccnc2)c(Br)c1 | 30.8 (≈ 104 µM)
O=C(Nc1ccc2c(c1)OCO2)N1CCCc2ccccc21 | > 44.4
CCc1nc(NC(=O)Cc2csc(C)n2)sc1C(=O)OC | > 48.8
O=S(=O)(NC1=NCCCCC1)c1ccccc1Cl | > 43
CC1CCC(NC(=O)CSc2nncs2)CC1 (configuration not stated) | > 40.7
C=CCn1c([O-])c(C(C)=O)c(=O)[nH]c1=O.C[NH+](C)C | > 40.4
CCn1c(/N=C/c2ccc(OC)cc2O)nc2ccccc21 | 15.6 (≈ 52.8 µM)
Oc1ccc2oc3c(c2c1C=NCc1ccncc1)CCCC3 | 16.9 (≈ 55.2 µM)
CNC(=S)N1CCN(CCNC2=CC(=O)CC(C)(C)C2)CC1 | 44.4 (≈ 137 µM)
Cc1ccc(CNC(=O)Nc2ccc(OC(F)(F)F)cc2)n1C | 9.4 (≈ 28.7 µM)
S=C(NCCc1ccccn1)NC1CC2CCC1C2 (configuration not stated) | > 41.3
Cc1cc(NC(=O)c2cc([N+](=O)[O-])ccc2Cl)no1 | > 42.2

SMILES | solubility kinetic [µg/mL]
Cl.O=C(O)C1CCN(Cc2ccccn2)CC1 | 34.4
CNCC(=O)O | 5.6 (≈ 62.9 µM)
COc1ccccc1OCC(=O)N1CCCCCCC1 | > 41.6
Cc1ccc(C(=O)OCC(=O)N2CCOCC2)c(C)c1 | 34 (≈ 123 µM)
CN1CCN(C(=O)OC2c3nccnc3C(=O)N2c2ccc(Cl)cn2)CC1 (configuration not stated) | > 58.3
NC(=O)c1cc2cc(Cc3ccccc3Cl)ccc2oc1=O | 1.2 (≈ 3.82 µM)
CCOc1ccc(-c2nonc2NC(=O)c2ccco2)cc1 | 12.1 (≈ 40.4 µM)
Cc1cc(Cl)ccc1C(=O)C1CCCN(C(=O)c2ccoc2)C1 (configuration not stated) | 35.7 (≈ 108 µM)
CCN(c1ccccc1)S(=O)(=O)c1ccc2ccccc2c1 | 4.9 (≈ 15.7 µM)
NCCCNc1nc(N)c([N+](=O)[O-])c(NC2CCCCC2)n1 | > 46.4
COCCNC(=O)C12CC3CC(CC(Cl)(C3)C1)C2 | > 40.8
O=C(Cc1ccc(Cl)cc1)Nc1ccc2oc(=O)ccc2c1 | 2.9 (≈ 9.24 µM)
COc1cc2[nH]c(C(=O)NCC3CCCO3)cc2c(OC)c1OC (configuration not stated) | > 50.2
O=C(NCc1ccc(Cl)cc1)C1CCC(=O)N(C2CC2)C1 (configuration not stated) | > 46
CCOC(=O)c1nn(-c2ccc(Cl)cc2)c(C)cc1=O | > 43.9
CC(=O)c1sc(NC(=O)c2ccc(F)cc2)nc1-c1ccccc1 | < 0.4
O=C1CN=C(c2cc([N+](=O)[O-])ccc2Cl)c2cc([N+](=O)[O-])ccc2N1 | 1.6 (≈ 4.44 µM)
O=S(=O)(c1ccccc1)N1CCN2CCCC2C1 (configuration not stated) | > 40
Cc1ccc(Cn2ncc(C)c2N)o1 | > 28.7
O=C(CN(Cc1ccco1)C(=O)c1ccc(F)cc1)Nc1ccccc1Br | > 64.7
COc1cc(C2NC(=O)CCC2[N+](=O)[O-])cc(OC)c1OC (configuration not stated) | > 46.5
c1ccc(CCNc2cnccn2)cc1 | > 29.9
O=C(COC(=O)c1cccc(S(=O)(=O)N2CCOCC2)c1)NCc1ccc2c(c1)OCO2 | 66.8 (≈ 144 µM)
COCc1cc(C)nc(SCc2ccc(Cl)cc2)c1C#N | 0.8 (≈ 2.51 µM)
COc1ccccc1C(=O)NC1CCCc2ccccc21 (configuration not stated) | 33.2 (≈ 118 µM)

SMILES | solubility kinetic [µg/mL]
CSCC(=O)Nc1nc(-c2ccc3c(c2)OCCO3)cs1 | 5.2 (≈ 16.1 µM)
COc1ccc(NC(=O)NS(=O)(=O)c2ccc(C)cc2)cc1OC | > 52.6
COC1(NC(=O)c2ccccc2)C(C)=CC(=O)C=C1C | 40 (≈ 147 µM)
O=C(COC(=O)C1CCC1)Nc1ccc(Cl)cn1 | > 40.3
CCOc1ccccc1NC(=O)COc1ccc2ccc(=O)oc2c1 | 0.9 (≈ 2.65 µM)
CC1(C)CC(=O)C(N=Nc2cccc([N+](=O)[O-])c2)=C(O)C1 | > 43.4
Cc1cc2cc(OCc3ccccc3)ccc2n1C | < 0.5
CC1CCC(NC(=S)NCCN(C)C)CC1 (configuration not stated) | 25.6 (≈ 105 µM)
CC1CCN(C(=O)c2ccc3c(c2)NC(=O)CN3)CC1 | > 41
CN1CCN(Cc2cccc3ncccc23)CC1CCO (configuration not stated) | > 42.8
NC(=O)CC(NSc1ccccc1[N+](=O)[O-])C(=O)O (configuration not stated) | 36.9 (≈ 129 µM)
COc1ccc(NS(=O)(=O)c2cn(C)cn2)c(OC)c1 | > 44.6
CC(=O)c1ccc(N2CCN(C(=O)Nc3cccc(F)c3)CC2)cc1 | 4.8 (≈ 14.1 µM)
C=CCOc1ccccc1CN1CCC(Cc2ccccc2)CC1 | 31.7 (≈ 98.6 µM)
CN1CCN(c2nc3ccccc3o2)CC1 | > 32.6
CCCC(=O)Nc1nnc(SCC(=O)N2CCCCC2)s1 | > 49.3
CC(C)NCc1cc(Br)ccc1OCc1ccccc1.Cl | > 55.6
CNC(=O)NC(=O)COc1ccc2oc3c(c2c1)CCCC3 | 2 (≈ 6.62 µM)
CCCCCCCn1c(C)nnc1-c1cnn(C)c1N | > 41.5
O=C(COC(=O)COc1cccc(F)c1)Nc1nc2ccccc2s1 | 45.1 (≈ 125 µM)
COc1ccc(NC(=O)NC2(C(=O)N3CCCC(C)C3)CCCCC2)cc1 (configuration not stated) | 36.2 (≈ 96.9 µM)
CC(C(=O)Nc1ccc(C(F)(F)F)cc1)N(C)CC(=O)N1CCN(Cc2ccccc2)CC1.O=C(O)C(=O)O (configuration not stated) | 52.1
CCc1ccc(NC(=O)C2(C)Cc3ccccc3C(=O)O2)cc1 (configuration not stated) | > 46.4
CCCOc1ccc(C(=O)NCC2OCCc3ccccc32)cc1OC (configuration not stated) | 4.7 (≈ 13.2 µM)
COc1ccc(/C=C/C(=O)O)cc1S(=O)(=O)NCc1cccnc1 | > 52.3

SMILES | solubility kinetic [µg/mL]
COc1ccccc1C(=O)NCCC(=O)NCCOc1ccccc1 | > 51.4
CC1CN(Cc2ccccc2)C(C)CC1O (configuration not stated) | > 32.9
CCc1ccccc1NC(=S)N1CCCCCC1 | > 39.4
O=C(NCCCNC(=O)c1ccco1)c1ccc(Cl)c(Cl)c1 | 44.2 (≈ 130 µM)
CCC(=O)N1CCN=C1SCc1cccc(F)c1 | > 39.9
CCN(C(=O)COC(=O)c1ccc([N+](=O)[O-])o1)C1CCCCC1 | > 48.6
Oc1ccccc1C=Nc1cccc2ccccc12 | 9.4 (≈ 38 µM)
CC(=O)N1CCN(CC(C)(C)NS(=O)(=O)c2ccccc2)CC1 | > 50.9
Cc1cccc(NC(=O)c2c(-c3ccccc3)noc2C)n1 | 34.9 (≈ 119 µM)
Nc1ccc(S(=O)(=O)C(F)(F)F)cc1N | > 36
COc1nc(N)nc2nc[nH]c12 | > 24.8
CC(C)NCC#CCOc1ccc(Cl)cc1.O=C(O)C(=O)O | 42.6
O=C(OCc1cccc([N+](=O)[O-])c1)c1cc2ccccc2oc1=O | < 0.7
C=CCOC(=O)C1=C(C)NC(=O)NC1c1ccc(N(C)C)cc1 (configuration not stated) | 5.8 (≈ 18.4 µM)
O=C(Nc1nnc(Cc2ccc(Cl)cc2)s1)C1CCCO1 (configuration not stated) | > 48.6
CCN(CC)c1ccc(NC(=O)c2c(C)noc2C)cc1 | > 43.1
Cc1ccc(C(=O)c2nccn2C)cc1C | > 32.1
CC1(C)C(=O)N(c2ccccc2Cl)C(=O)c2ccccc21 | 44.3 (≈ 148 µM)
O=C(CN1C(=O)CCC1=O)Nc1cccc2c1C(=O)NC2=O | > 45.2
C/C(N)=C(/C#N)C(=O)COC(=O)Cc1coc2cc(C)ccc12 | 10.2 (≈ 32.7 µM)
O=C(CN1CCN(c2ccc(F)cc2)CC1)c1ccc(O)cc1O | 12.7 (≈ 38.4 µM)
CCc1ccc(C2C(C#N)=C(N)Oc3cc(N)ccc32)cc1 (configuration not stated) | 2.4 (≈ 8.24 µM)
